Consider 6 compounds from patent publication US9394281B2, “Substituted heteroaryl compounds and methods of use” (Calitor Sciences, LLC, priority 2014, dated 2016).

Data set [1] in a line: Compound stability in human liver microsomes. It is filed as in vitro ADME. As to conditions: for half-life at 5 μM / CLint scaled at 5 μM: pH 7.4; for half-life at 5 μM: read-out: Human T1/2; for CLint scaled at 5 μM: human liver microsomes, in vivo CLint extrapolated. How it is done: (§1) Human or rat liver microsomes incubations were conducted in duplicate in polypropylene tubes. The typical incubation mixtures consisted of human or rat liver microsomes (0.5 mg protein/mL), compounds of interest (5 μM) and NADPH (1.0 mM) in a total volume of 200 μL potassium phosphate buffer (PBS, 100 mM, pH 7.4). Compounds were dissolved in DMSO and diluted with PBS such that the final concentration of DMSO was 0.05%. The enzymatic reactions were commenced with the addition of […] after a 3-min preincubation and incubated in a water bath open to the air at 37° C. Reactions were terminated at various time points (0, 5, 10, 15, 30, 60 min) by adding equal volume of ice-cold acetonitrile. The samples were stored at […] until LC/MS/MS assays.
(§2) The concentrations of compounds in the incubation mixtures of human or rat liver microsomes were determined by a LC/MS/MS method. The ranges of the linearity in the concentration range were determined for each tested compounds.
(§3) A parallel incubation was performed using denatured microsomes as the negative control, and reactions were terminated at various time points (0, 15, 60 min) after incubation at 37° C.
(§4) Dextromethorphan (70 μM) was selected as the positive control, and reactions were terminated at various time points (0, 5, 10, 15, 30, 60 min) after incubation at 37° C. Both positive and negative control samples were included in each assay to ensure the integrity of the microsomal incubation system.
(§5) The concentrations of compounds in human or rat liver microsome incubations were plotted as a percentage of the relevant zero time point control for each reaction. The in vivo CLint were extrapolated (ref.: Naritomi, Y.; Terashita, S.; Kimura, S.; Suzuki, A.; Kagayama, A.; and Sugiyama, Y.; Prediction of human hepatic clearance from in vivo animal experiments and in vitro metabolic studies with liver microsomes from animals and humans. Drug Metab. Dispos., 2001, 29: 1316-1324).

Data set [2] is described as follows: Compound stability in rat liver microsomes. It is filed as in vitro ADME. The following applies: pH 7.4; for half-life at 5 μM: rat liver microsomes 0.5 mg protein/mL, compound 5 μM, NADPH 1.0 mM, 37° C., read-out: Rat T1/2; for CLint scaled at 5 μM: rat liver microsomes, in vivo CLint extrapolated. How it is done: as §1, §2, §3, §4, §5
The nature of data set [3]: Pharmacokinetics after intravenous and oral administration in rats. As to conditions: iv dosing, 1 mg/kg; for AUC(0-t) / half-life / Vd: rat, plasma; for Vd: read-out: Vss. Type of data set: in vivo, rat. As to the method:
The compounds disclosed herein are assessed in pharmacokinetic studies in mice, rats, dogs or monkeys. The compounds are administered as a water solution, 2% HPMC+1% TWEEN®80 in water solution, 5% DMSO+5% solutol in saline, 4% MC suspension or capsule. For the intravenous administration, the animals are generally given at 1 or 2 mg/kg dose. For the oral (p.o.) dosing, mice and rats are generally given 5 or 10 mg/kg dose, and dogs and monkeys are generally given 10 mg/kg dose. The blood samples (0.3 mL) are drawn at 0.25, 0.5, 1.0, 2.0, 3.0, 4.0, 6.0, 8.0, 12 and 24 h time points or 0.083, 0.25, 0.5, 1.0, 2.0, 4.0, 6.0, 8.0 and 24 h time points and centrifuged at 3,000 or 4000 rpm for 2 to 10 min. The plasma solutions are collected, and stored at −20° C. or −70° C. until analyzed by LC/MS/MS as described above.

The next data set concerns the target JAK1 (h) (Homo sapiens (Human), UniProt P23458). Put plainly: JAK1 (h) kinase assay. Type of data set: biochemical. As to the method:
(§6) Kinase assays can be performed by measurement of incorporation of γ-^33P ATP into immobilized myelin basic protein (MBP). High binding white 384 well plates (Greiner) are coated with MBP (Sigma #M-1891) by incubation of 60 μL/well of 20 μg/mL MBP in Tris-buffered saline (TBS; 50 mM Tris pH 8.0, 138 mM NaCl, 2.7 mM KCl) for 24 h at 4° C. Plates are washed 3× with 100 μL TBS. Kinase reactions are carried out in a total volume of 34 μL in kinase buffer (5 mM Hepes pH 7.6, 15 mM NaCl, 0.01% bovine gamma globulin (Sigma #I-5506), 10 mM MgCl2, 1 mM DTT, 0.02% TritonX-100). Compound dilutions are performed in DMSO and added to assay wells to a final DMSO concentration of 1%. Each data point is measured in duplicate, and at least two duplicate assays are performed for each individual compound determination. Enzyme is added to final concentrations of 10 nM or 20 nM, for example. A mixture of unlabeled ATP and γ-^33P ATP is added to start the reaction (2×10^6 cpm of γ-^33P ATP per well (3000 Ci/mmole) and 10 μM unlabeled ATP, typically. The reactions are carried out for 1 h at room temperature with shaking Plates are washed 7× with TBS, followed by the addition of 50 μL/well scintillation fluid (Wallac). Plates are read using a Wallac Trilux counter. This is only one format of such assays; various other formats are possible, as known to one skilled in the art.
The above assay procedure can be used to determine the IC50 for inhibition and/or the inhibition constant, Ki. The IC50 is defined as the concentration of compound required to reduce the enzyme activity by 50% under the condition of the assay. The IC50 value is estimated by preparing a 10 point curve using a ½ log dilution series (for example, a typical curve may be prepared using the following compound concentrations: 3 μM, 1 μM, 0.3 μM, 0.1 μM, 0.03 μM, 0.01 μM, 0.003 μM, 0.001 μM, 0.0003 μM, and 0 μM).
(§7) The kinase assays described herein were performed at Millipore UK Ltd, Dundee Technology Park, Dundee DD2 1SW, UK.

Another data set has as its target JAK2 (h) (Homo sapiens (Human), UniProt O60674). Put plainly: JAK2 (h) kinase assay. Type of data set: biochemical. How it is done:
as §6, with “art. […]” for “art.”

The target in another data set is Aurora-A (h) (Homo sapiens (Human), UniProt O14965). In words: Aurora-A (h) kinase assay. It is filed as biochemical. As to the method:
Kinase assays can be performed by measurement of incorporation of γ-^33P ATP into immobilized myelin basic protein (MBP). […] Plates are washed 3× with 100 μL TBS. Kinase reactions are carried out in a total volume of 34 μL in kinase buffer (5 mM Hepes pH 7.6, 15 mM NaCl, 0.01% bovine gamma globulin (Sigma #I-5506), 10 mM MgCl2, 1 mM DTT, 0.02% TritonX-100). Compound dilutions are performed in DMSO and added to assay wells to a final DMSO concentration of 1%. Each data point is measured in duplicate, and at least two duplicate assays are performed for each individual compound determination. Enzyme is added to final concentrations of 10 nM or 20 nM, for example.
The above assay procedure can be used to determine the IC50 for inhibition and/or the inhibition constant, Ki. The IC50 is defined as the concentration of compound required to reduce the enzyme activity by 50% under the condition of the assay.
as §7

Another data set addresses Aurora-B (h) (Homo sapiens (Human), UniProt Q96GD4). Put plainly: Aurora-B (h) kinase assay. It is filed as biochemical. As to the method: as §6, with “art. […]” for “art.”
A further data set addresses FLT3 (h) (Homo sapiens (Human), UniProt P36888). In words: FLT3 (h) kinase assay. Type of data set: biochemical. As to the method: as §6, with “art. […]” for “art.”
The mark [4] stands for this setting: human liver microsomes 0.5 mg protein/mL, compound 5 μM, NADPH 1.0 mM, 37° C.

Chain of JAK1 (h) (P23458 whole entry): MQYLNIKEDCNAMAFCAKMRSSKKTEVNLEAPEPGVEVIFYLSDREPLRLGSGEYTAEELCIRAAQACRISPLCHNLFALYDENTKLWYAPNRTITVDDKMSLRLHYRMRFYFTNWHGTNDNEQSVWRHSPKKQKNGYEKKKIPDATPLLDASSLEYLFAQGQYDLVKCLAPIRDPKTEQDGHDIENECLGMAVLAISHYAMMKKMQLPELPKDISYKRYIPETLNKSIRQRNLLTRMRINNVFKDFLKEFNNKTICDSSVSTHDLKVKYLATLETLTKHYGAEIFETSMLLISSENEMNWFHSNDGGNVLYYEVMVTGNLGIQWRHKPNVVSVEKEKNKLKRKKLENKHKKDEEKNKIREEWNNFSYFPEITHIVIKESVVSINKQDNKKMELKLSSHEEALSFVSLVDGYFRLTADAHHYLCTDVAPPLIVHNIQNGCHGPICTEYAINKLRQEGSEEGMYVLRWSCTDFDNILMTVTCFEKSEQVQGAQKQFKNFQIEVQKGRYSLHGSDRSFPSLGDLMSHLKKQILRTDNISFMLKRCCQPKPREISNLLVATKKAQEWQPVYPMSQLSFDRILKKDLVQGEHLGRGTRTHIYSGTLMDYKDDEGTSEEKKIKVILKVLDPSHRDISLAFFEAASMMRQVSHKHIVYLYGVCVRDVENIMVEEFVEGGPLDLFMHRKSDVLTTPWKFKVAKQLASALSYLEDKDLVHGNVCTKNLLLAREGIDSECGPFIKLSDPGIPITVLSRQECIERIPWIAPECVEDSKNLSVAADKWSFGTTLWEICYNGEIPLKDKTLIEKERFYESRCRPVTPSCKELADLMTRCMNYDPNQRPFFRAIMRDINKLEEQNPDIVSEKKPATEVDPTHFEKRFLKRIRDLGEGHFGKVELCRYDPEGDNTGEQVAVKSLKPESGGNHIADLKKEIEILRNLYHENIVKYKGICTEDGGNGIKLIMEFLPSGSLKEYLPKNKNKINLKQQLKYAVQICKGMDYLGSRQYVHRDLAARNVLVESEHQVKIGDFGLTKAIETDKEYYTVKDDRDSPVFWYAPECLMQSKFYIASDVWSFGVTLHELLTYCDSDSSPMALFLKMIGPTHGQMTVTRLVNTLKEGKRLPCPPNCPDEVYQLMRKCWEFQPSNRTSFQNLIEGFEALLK
Chain of FLT3 (h) (P36888 27-993): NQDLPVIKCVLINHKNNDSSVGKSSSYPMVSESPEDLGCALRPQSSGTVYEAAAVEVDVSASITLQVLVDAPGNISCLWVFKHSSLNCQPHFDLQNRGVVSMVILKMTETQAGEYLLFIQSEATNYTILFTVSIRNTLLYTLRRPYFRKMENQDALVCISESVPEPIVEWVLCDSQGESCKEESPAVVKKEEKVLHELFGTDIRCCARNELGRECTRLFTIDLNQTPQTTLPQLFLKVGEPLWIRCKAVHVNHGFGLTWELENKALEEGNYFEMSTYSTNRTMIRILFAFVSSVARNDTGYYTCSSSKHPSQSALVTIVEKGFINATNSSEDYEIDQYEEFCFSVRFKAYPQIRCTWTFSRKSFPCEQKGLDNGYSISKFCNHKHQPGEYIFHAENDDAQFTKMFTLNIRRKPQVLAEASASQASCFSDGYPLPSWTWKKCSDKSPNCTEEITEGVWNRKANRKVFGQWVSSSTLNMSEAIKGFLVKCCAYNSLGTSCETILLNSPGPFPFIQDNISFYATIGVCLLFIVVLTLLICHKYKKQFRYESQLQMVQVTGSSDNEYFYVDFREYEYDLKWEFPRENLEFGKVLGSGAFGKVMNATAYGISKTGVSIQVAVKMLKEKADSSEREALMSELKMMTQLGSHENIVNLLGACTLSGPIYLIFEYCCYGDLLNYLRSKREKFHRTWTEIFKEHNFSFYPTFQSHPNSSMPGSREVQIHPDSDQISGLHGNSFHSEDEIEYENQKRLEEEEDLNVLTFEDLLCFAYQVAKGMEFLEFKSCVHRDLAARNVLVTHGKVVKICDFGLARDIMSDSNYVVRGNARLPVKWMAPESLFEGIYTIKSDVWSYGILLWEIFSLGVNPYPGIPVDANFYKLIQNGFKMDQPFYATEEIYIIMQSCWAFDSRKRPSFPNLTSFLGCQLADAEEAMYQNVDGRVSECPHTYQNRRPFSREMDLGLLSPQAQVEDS
Chain of Aurora-A (h) (O14965 whole entry): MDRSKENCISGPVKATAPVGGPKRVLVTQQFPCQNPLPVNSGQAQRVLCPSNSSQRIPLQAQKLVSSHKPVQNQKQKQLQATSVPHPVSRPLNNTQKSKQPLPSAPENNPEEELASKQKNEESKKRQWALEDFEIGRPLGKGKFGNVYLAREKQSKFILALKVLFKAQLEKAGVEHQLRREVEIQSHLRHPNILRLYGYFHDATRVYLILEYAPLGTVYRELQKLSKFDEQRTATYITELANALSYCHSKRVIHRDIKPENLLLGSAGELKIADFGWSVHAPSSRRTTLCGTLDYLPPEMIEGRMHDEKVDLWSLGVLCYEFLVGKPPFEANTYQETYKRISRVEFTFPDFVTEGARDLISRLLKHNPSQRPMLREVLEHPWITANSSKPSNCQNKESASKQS
Chain of Aurora-B (h) (Q96GD4 whole entry): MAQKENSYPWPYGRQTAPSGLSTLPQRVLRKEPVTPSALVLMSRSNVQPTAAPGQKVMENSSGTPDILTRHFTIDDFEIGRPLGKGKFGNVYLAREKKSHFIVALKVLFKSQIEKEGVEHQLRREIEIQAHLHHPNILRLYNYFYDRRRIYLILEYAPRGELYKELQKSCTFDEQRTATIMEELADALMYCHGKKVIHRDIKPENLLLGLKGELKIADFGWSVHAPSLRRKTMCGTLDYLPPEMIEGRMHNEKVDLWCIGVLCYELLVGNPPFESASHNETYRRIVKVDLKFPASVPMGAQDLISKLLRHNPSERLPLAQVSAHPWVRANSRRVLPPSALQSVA
Chain of JAK2 (h) (O60674 whole entry): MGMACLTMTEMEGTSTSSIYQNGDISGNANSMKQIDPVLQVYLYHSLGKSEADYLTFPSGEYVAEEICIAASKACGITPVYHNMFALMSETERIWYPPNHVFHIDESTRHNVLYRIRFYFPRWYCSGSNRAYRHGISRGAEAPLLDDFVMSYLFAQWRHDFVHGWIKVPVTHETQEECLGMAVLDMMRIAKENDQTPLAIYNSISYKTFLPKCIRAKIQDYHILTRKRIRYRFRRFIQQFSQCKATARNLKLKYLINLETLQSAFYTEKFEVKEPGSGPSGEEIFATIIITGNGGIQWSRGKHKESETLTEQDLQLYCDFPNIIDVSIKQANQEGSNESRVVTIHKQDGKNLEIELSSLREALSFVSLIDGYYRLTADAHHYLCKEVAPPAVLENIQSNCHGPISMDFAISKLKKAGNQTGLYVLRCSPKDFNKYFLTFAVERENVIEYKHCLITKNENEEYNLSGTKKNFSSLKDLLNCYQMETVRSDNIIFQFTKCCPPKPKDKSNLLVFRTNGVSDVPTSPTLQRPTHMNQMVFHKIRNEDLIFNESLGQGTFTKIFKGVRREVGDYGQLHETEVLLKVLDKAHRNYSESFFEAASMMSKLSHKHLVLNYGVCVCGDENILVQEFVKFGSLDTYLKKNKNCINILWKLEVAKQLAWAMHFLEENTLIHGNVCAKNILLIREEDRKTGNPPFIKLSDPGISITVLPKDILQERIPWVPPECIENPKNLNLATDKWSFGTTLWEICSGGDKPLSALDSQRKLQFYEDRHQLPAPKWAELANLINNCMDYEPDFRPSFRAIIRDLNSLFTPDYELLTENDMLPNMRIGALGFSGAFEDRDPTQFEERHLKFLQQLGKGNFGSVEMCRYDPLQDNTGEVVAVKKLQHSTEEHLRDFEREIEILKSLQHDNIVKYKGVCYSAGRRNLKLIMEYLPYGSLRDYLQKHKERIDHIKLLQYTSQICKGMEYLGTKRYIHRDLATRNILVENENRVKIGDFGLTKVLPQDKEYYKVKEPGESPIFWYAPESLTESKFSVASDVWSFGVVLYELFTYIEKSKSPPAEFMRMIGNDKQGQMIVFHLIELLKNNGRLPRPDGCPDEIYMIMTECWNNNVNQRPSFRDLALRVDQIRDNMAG

What is called CLint scaled is the capacity of the preparation to metabolise the compound, expressed as a volume cleared per time. The AUC(0-t) is exposure summed from dosing to a finite time, without extrapolation to infinity. One may read the IC50 as the concentration that inhibits the measured activity by half. Regarding `CN(c1nc(Nc2cnn(C)c2)ncc1Cl)C1COC2C(O)COC21` (stereo not drawn) [Ex. 1, 6-((5-chloro-2-((l-methyl-1H-pyrazol-4-yl)amino)pyrimidin-4-yl)(methyl)amino)hexahydrofuro[3,2-b]furan-3-ol], the half-life at 5 μM in data set [1] (setting [4]) is 32.8 h. The CLint scaled at 5 μM in data set [1] was 0.88 mL/min/kg. In addition, in data set [2], the half-life at 5 μM was 20.6 h and the CLint scaled at 5 μM was 2.01 mL/min/kg. In addition, in data set [3], the Cl/F is 18.2 mL/min/kg, the AUC(0-t) stood at 929 ng·h/mL, the half-life was 1.2 h and the Vd is 1.22 L/kg. The compound also gave a concentration for half-maximal inhibition (IC50) at JAK1 (h) of 261 nM. The compound also came in with a half-inhibitory concentration (IC50) on JAK2 (h) of 689 nM.
With `COC1COC2C(Nc3nc(Nc4cnn(C)c4)ncc3Cl)COC12` (stereo not drawn) [Ex. 6, 5-chloro-N^4-(6-methoxyhexahydrofuro[3,2-b]furan-3-yl)-N^2-(1-methyl-1H-pyrazol-4-yl)pyrimidine-2,4-diamine], in data set [1] (setting [4]), the half-life at 5 μM turned out to be 1.52 h. The CLint scaled at 5 μM in data set [1] is 19 mL/min/kg. Further, in data set [2], the half-life at 5 μM came to 1.48 h and the intrinsic metabolic clearance (CLint scaled) at 5 μM is 28 mL/min/kg. Besides, in data set [3], the Cl/F is 20.8 mL/min/kg, the AUC(0-t) was 822 ng·h/mL, the half-life is 0.83 h and the Vd came to 1.39 L/kg.
Consider `Cn1cc(Nc2ncc(Cl)c(NC3COC4C(NS(C)(=O)=O)COC34)n2)cn1` (stereo not drawn) [Ex. 8, N-(6-((5-chloro-2-((1-methyl-1H-pyrazol-4-yl)amino)pyrimidin-4-yl)amino)hexahydrofuro[3,2-b]furan-3-yl)methanesulfonamide], for which the half-life at 5 μM in data set [1] (setting [4]) came out at 6.28 h; in data set [2], 1.64 h. Besides, the values for the intrinsic clearance (CLint scaled) at 5 μM in data set [1] and in data set [2] were 4.61 mL/min/kg and 25.2 mL/min/kg, respectively. In data set [3], the Cl/F came out at 63.7 mL/min/kg. Moreover, the exposure AUC(0-t) in data set [3] came to 259 ng·h/mL. This compound also had a half-life in data set [3] of 0.34 h. Moreover, in data set [3], the Vd turned out to be 1.39 L/kg. For the same compound, the IC50 against JAK1 (h) was 31 nM; against Aurora-A (h), 51 nM; at Aurora-B (h), 31 nM; against FLT3 (h), 11 nM.
In turn, `Cc1cnc(Nc2cnn(C)c2)nc1NC1COC2C(O)COC12` (stereo not drawn) [Ex. 3, 6-((5-methyl-2-((1-methyl-1H-pyrazol-4-yl)amino)pyrimidin-4-yl)amino) hexahydrofuro[3,2-b]furan-3-ol] displayed a concentration for half-maximal inhibition (IC50) against JAK1 (h) of 78 nM.
On Aurora-A (h), `Cn1cc(Nc2ncc(Cl)c(NC3COC4C(N)COC34)n2)cn1` (stereo not drawn) [Ex. 7, N^4-(6-aminohexahydrofuro[3,2-b]furan-3-yl)-5-chloro-N^2-(1-methyl-1H-pyrazol-4-yl)pyrimidine-2,4-diamine] showed an IC50 of 99 nM.
As to `Cn1cc(Nc2ncc(Cl)c(NC3COC4C(OCCO)COC34)n2)cn1` (stereo not drawn) [Ex. 5, 2-((6-((5-chloro-2-((l-methyl-1H-pyrazol-4-yl)amino)pyrimidin-4-yl)amino)hexahydrofuro[3,2-b]furan-3-yl)oxy)ethanol], the “Human T1/2” value in data set [1] (setting [4]) is “∞”. In data set [2], the half-life at 5 μM is 12.1 h and the intrinsic clearance (CLint scaled) at 5 μM was 3.42 mL/min/kg. In data set [3], the Cl/F was found to be 25 mL/min/kg, the AUC(0-t) was found to be 621 ng·h/mL, the half-life was 2.93 h and the Vd stood at 3.02 L/kg. This compound gave an IC50 against JAK1 (h) of 61 nM. This compound also had an IC50 against Aurora-B (h) of 50 nM. Further, 57 nM corresponded to half-maximal inhibition at FLT3 (h) (IC50).
